As a reminder, the ED50 is the dose that gives a 50% effect, or the effect in half of the subjects. What is called IC50 is the concentration at which inhibition is half-maximal. One may read the inhibition as how much of the control response was suppressed.

The source made the active and inactive calls.

The subject of data set [1] is Mus musculus. Description: Anticonvulsant activity against maximal electroshock-induced seizure in CD1 mouse at 100 mg/kg, po after 0.5 hrs. Type of data set: functional, organism-based. Details: dose 100 mg/kg.
In data set [2] the test system is Mus musculus. Briefly: Anticonvulsant activity against maximal electroshock-induced seizure in po dosed CF1 mouse after 1 hr. The data set is classed as functional. (Protection in the maximal electroshock model is a classic sign of anticonvulsant action.)
Data set [3] has as its system Mus musculus. Description: Anticonvulsant activity against maximal electroshock-induced seizure in CD1 mouse at 100 to 300 mg/kg, po after 0.5 to 8 hrs. The data set is classed as functional, organism-based.
Data set [4] relates to Mus musculus. Description: Anticonvulsant activity against maximal electroshock-induced seizure in CD1 mouse at 100 mg/kg, po after 2 hrs. Also noted: dose 100 mg/kg. The data set is classed as functional, organism-based.
For data set [5], the system named is Mus musculus. Briefly: Anticonvulsant activity against maximal electroshock-induced seizure in CD1 mouse at 300 mg/kg, po after 0.5 hrs. Type of data set: functional, organism-based. Also noted: dose 300 mg/kg.
Data set [6] deals with T1, Carbonic anhydrase 2 (Homo sapiens, UniProt P00918). Briefly: Inhibition of human carbonic anhydrase 2 by fluorimetric assay.
In data set [7] the target is Sodium channel protein type 2 subunit alpha (Rattus norvegicus, UniProt P04775). Briefly: Inhibition of rat Nav1.2 channel expressed in chinese hamster CHL1610 cells at preconditioning pulse of -67 mV after 2 to 3 mins by whole-cell patch-clamp technique. Type of data set: cell-based.
Sequence of Sodium channel protein type 2 subunit alpha (P04775 whole entry): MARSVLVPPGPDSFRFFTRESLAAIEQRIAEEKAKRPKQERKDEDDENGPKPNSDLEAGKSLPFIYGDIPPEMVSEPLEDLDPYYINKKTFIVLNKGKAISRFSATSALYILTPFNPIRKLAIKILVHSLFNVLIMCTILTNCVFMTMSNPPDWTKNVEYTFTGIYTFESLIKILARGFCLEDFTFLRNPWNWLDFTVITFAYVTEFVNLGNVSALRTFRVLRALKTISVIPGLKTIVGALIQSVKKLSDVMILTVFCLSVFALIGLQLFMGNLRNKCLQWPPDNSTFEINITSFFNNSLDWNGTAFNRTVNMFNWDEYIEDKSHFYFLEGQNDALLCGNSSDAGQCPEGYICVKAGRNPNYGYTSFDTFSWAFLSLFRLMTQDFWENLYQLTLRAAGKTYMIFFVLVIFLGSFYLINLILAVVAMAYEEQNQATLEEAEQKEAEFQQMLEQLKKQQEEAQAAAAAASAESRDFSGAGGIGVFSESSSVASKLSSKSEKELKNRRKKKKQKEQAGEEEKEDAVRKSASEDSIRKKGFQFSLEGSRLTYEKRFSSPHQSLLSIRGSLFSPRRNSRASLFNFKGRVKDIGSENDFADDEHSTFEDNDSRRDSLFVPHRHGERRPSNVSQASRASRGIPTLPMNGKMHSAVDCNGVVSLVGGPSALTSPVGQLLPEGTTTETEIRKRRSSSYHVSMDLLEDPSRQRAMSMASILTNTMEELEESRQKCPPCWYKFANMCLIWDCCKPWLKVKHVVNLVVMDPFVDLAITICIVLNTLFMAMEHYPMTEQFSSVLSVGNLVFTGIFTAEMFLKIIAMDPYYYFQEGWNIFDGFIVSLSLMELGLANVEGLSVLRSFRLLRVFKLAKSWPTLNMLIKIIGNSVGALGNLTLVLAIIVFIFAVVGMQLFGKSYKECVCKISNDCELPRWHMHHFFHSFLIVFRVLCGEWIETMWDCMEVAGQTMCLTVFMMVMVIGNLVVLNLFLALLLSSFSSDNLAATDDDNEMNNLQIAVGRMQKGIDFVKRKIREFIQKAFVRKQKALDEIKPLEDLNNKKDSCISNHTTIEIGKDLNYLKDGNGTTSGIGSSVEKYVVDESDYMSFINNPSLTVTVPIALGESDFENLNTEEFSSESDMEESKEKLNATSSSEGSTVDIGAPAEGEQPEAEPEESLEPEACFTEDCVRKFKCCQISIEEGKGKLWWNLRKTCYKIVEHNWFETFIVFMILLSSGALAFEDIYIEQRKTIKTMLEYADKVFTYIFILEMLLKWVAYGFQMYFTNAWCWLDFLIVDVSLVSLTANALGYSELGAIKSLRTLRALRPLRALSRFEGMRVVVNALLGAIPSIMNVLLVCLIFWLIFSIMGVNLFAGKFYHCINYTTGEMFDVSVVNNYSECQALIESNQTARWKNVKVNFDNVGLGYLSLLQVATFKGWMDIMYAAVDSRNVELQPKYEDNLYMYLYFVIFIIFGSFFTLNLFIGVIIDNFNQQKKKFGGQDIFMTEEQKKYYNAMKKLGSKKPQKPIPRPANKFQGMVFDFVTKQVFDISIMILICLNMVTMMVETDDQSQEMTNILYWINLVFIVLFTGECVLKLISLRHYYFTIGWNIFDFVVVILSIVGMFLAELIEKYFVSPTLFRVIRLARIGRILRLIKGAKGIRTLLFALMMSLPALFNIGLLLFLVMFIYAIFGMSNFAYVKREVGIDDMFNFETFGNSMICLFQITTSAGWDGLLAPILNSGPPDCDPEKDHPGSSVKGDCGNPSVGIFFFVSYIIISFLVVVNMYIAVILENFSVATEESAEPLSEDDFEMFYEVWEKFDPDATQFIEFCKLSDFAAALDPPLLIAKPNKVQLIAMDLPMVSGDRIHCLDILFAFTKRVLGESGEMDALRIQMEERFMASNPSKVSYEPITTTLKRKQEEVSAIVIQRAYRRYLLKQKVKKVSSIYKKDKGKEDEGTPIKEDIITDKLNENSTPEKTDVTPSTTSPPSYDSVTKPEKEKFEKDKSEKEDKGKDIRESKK
Data set [8] concerns the target Sodium channel protein type 2 subunit alpha (Rattus norvegicus) (UniProt P04775). Briefly: Inhibition of rat Nav1.2 channel expressed in chinese hamster CHL1610 cells at preconditioning pulse of -107 to -67 mV up to 300 uM after 2 to 3 mins by whole-cell patch-clamp technique. The data set is classed as cell-based. On the technique in general: Patch clamp records ionic current or voltage across a cell membrane.

Data set [9] deals with Mus musculus. Description: Anticonvulsant activity against bicuculline-induced seizure in ip dosed CF1 mouse after 0.25 hrs. The data set is classed as functional.
In data set [10] the test system is Rattus norvegicus. Briefly: Anticonvulsant activity against electric stimulation-induced pharmacoresistant limbic epilepsy in ip dosed Sprague-Dawley rat kindling model assessed as reduction of seizure severity and excitability administered 15 mins after last electric stimulation measured after 15 mins to 1 hr. Type of data set: functional. The following applies: Limbic system.

For data set [11], the target named is T1, Carbonic anhydrase 2.
Description: Inhibition of human carbonic anhydrase 2 by CO2 hydration assay
The test system of data set [12] is Mus musculus. Description: Anticonvulsant activity against pentylenetetrazole-induced seizure in ip dosed CF1 mouse after 0.25 hrs. The data set is classed as functional.
The subject of data set [13] is Mus musculus. Description: Anticonvulsant activity against pentylenetetrazole-induced seizure in ip dosed CF1 mouse assessed as increase in threshold of seizure twitch at TD50 administered 15 mins before pentylenetetrazole infusion. Type of data set: functional, organism-based.
The subject of data set [14] is Mus musculus. Description: Anticonvulsant activity against maximal electroshock-induced seizure in CD1 mouse at 300 mg/kg, po after 2 hrs. Details: dose 300 mg/kg. The data set is classed as functional, organism-based.
The test system of data set [15] is Rattus norvegicus. Briefly: Anticonvulsant activity against maximal electroshock-induced seizure in po dosed rat after 4 hrs. Type of data set: functional.
For data set [16], the system named is Rattus norvegicus. Description: Anticonvulsant activity against maximal electroshock-induced seizure in po dosed Sprague-Dawley rat after 2 hrs. The data set is classed as functional.
Data set [17] concerns Mus musculus. Briefly: Anticonvulsant activity against audiogenic seizures in ip dosed AGS mouse assessed as inhibition of hindlimb tonic extension administered 1 hr prior to 11 kHz sound induction. The data set is classed as functional.
Data set [18] relates to Mus musculus. Description: Anticonvulsant activity against pentylenetetrazole-induced seizure in ip dosed CF1 mouse assessed as increase in seizure threshold for clonus at TD50 administered 15 mins before pentylenetetrazole infusion. Type of data set: functional, organism-based.
In data set [19] the test system is Rattus norvegicus. Description: Anticonvulsant activity against maximal electroshock-induced seizure in po dosed rat. The data set is classed as functional.
For data set [20], the system named is Mus musculus. Briefly: Anticonvulsant activity against pentylenetetrazole-induced seizure in ip CF1 mouse assessed as increase in threshold of seizure twitch at ED50 administered 15 mins before pentylenetetrazole infusion. Type of data set: functional, organism-based.
Data set [21] concerns Mus musculus. Description: Anticonvulsant activity against pentylenetetrazole-induced seizure in CF1 mouse assessed as increase in threshold of seizure twitch at 107 mg/kg, ip administered 15 mins before pentylenetetrazole infusion. The data set is classed as functional. Particulars: route intraperitoneal.
In data set [22] the test system is Mus musculus. Description: Anticonvulsant activity against pentylenetetrazole-induced seizure in CF1 mouse assessed as increase in seizure threshold for clonus at 107 mg/kg, ip administered 15 mins before pentylenetetrazole infusion. Particulars: route intraperitoneal. The data set is classed as functional.
The test system of data set [23] is Mus musculus. Briefly: Anticonvulsant activity against pentylenetetrazole-induced seizure in ip dosed CF1 mouse assessed as increase in seizure threshold for clonus at ED50 administered 15 mins before pentylenetetrazole infusion. Type of data set: functional, organism-based.
The subject of data set [24] is Rattus norvegicus. Description: Anticonvulsant activity against electric stimulation-induced pharmacoresistant limbic epilepsy in Sprague-Dawley rat kindling model assessed as reduction of seizure severity and excitability at > 26 mg/kg, ip administered 15 mins after last electric stimulation. Also noted: dose 26 mg/kg. Type of data set: functional, organism-based. The following applies: Limbic system.

In data set [25] the test system is Rattus norvegicus. Description: Anticonvulsant activity against electric stimulation-induced pharmacoresistant limbic epilepsy in Sprague-Dawley rat kindling model assessed as reduction of seizure severity and excitability at > 300 mg/kg, ip administered 15 mins after last electric stimulation. Type of data set: functional, organism-based. Also noted: dose 300 mg/kg. Particulars: Limbic system.

Data set [26] has as its system Mus musculus. Briefly: Anticonvulsant activity against picrotoxin-induced seizure in ip dosed CF1 mouse after 0.25 hrs. The data set is classed as functional.
The test system of data set [27] is Mus musculus. Briefly: Neurotoxicity in mouse assessed as motor impairment 400 mg/kg, ip by rotarod test. Type of data set: toxicity, organism-based. Details: dose 400 mg/kg, route intraperitoneal. Particulars: in vivo. On the technique in general: Falling from the rotarod earlier than controls is read as motor impairment.
Data set [28] addresses T1, Carbonic anhydrase 2. Briefly: Inhibition of human carbonic anhydrase 2 at 100 uM by CO2 hydration assay.
The subject of data set [29] is Mus musculus. Briefly: Anticonvulsant activity against maximal electroshock-induced seizure in CD1 mouse at 300 mg/kg, po after 4 hrs. The data set is classed as functional, organism-based. Details: dose 300 mg/kg.
The subject of data set [30] is Mus musculus. Description: Anticonvulsant activity against maximal electroshock-induced seizure in po dosed CD1 mouse after 0.5 hrs. Type of data set: functional.
[31] abbreviates: Mus musculus, CF1, po, 1 h, read-out: ED50.

Sequence of Sodium channel protein type 2 subunit alpha (Rattus norvegicus) (P04775 whole entry, looked up): as the sequence (P04775 whole entry) above

Turning to `NS(=O)(=O)NCc1csc2ccc(F)cc12`, the result with Mus musculus [1] was inactive. Besides, the ED50 with Mus musculus [2] (setting [31]) was found to be 231 mg/kg.

For `CCCCNS(N)(=O)=O`, the result with Mus musculus [3] was inactive.

For the compound `NS(=O)(=O)NCc1csc2ccc(Cl)cc12`, the outcome with Mus musculus [1], in the data set with Mus musculus [4] and in the data set on Mus musculus [5] was inactive. Further, the half-maximal inhibitory concentration (IC50) at Carbonic anhydrase 2 [6] was 8.4 µM.

The compound `Nc1nnc(-c2cccc(Cl)c2Cl)c(N)n1` [LAMOTRIGINE] showed an IC50 in data set [7] of 35 µM.

With `NCC1(CC(=O)O)CCCCC1`, in data set [8], the inhibition entry is “inactive”.

With `CC[C@@H](C(N)=O)N1CCCC1=O`, in the data set on Mus musculus [9] (Mus musculus, CF1, ip, 0.25 h, read-out: ED50), the ED50 is > 540 mg/kg.

As to `CCC1(C)CC(=O)NC1=O` (stereo not drawn), the outcome with Rattus norvegicus [10] was inactive.

Consider `NS(=O)(=O)NCc1c[nH]c2ccccc12`, for which, in the data set on Mus musculus [4], the result was inactive. For the same compound, the midpoint of inhibition against Carbonic anhydrase 2 [6], the IC50, lay at 300 µM.

At Carbonic anhydrase 2 [11], `CC(NS(N)(=O)=O)c1csc2ccccc12` (racemic) came in with an IC50 of 130 µM.

With `Cc1oc2ccccc2c1CNS(N)(=O)=O`, the result in the data set on Mus musculus [4] was inactive.

`NS(=O)(=O)NCc1csc2ccc(Br)cc12` came in with an IC50 against Carbonic anhydrase 2 [6] of 100 µM.

As to `Cn1cc(CNS(N)(=O)=O)c2ccccc21`, the outcome in the data set on Mus musculus [1] and in the data set on Mus musculus [4] was inactive. In the data set on Mus musculus [5], the result was Active. The ED50 in the data set on Mus musculus [2] (setting [31]) was 345 mg/kg.

Take `CC1(C)O[C@@H]2[C@@H](CO[C@@]3(COS(N)(=O)=O)OC(C)(C)O[C@@H]23)O1` [TOPIRAMATE]: the ED50 with Mus musculus [12] was >500 mg/kg; with Rattus norvegicus [15], 53.5 mg/kg; in the data set with Rattus norvegicus [16] it was 6.6 mg/kg; in the data set on Mus musculus [17], 4.2 mg/kg; in the data set with Mus musculus [9], >500 mg/kg; in the data set on Rattus norvegicus [19] it was 6.6 mg/kg. This compound yielded an ED50 in the data set with Mus musculus [2] of 43.8 mg/kg. For the same compound, the outcome in the data set on Mus musculus [13], in the data set with Mus musculus [14], in the data set on Mus musculus [18], in the data set with Mus musculus [20] and in the data set on Mus musculus [23] was inactive. The compound also gave an IC50 in [7] of 97 µM. Besides, the Activity in the data set on Mus musculus [21] and with Mus musculus [22] was 0% throughout.

With `NC(=O)N1c2ccccc2C=Cc2ccccc21`, in the data set on Rattus norvegicus [24], the result was Active.

In the case of `CCCC(CCC)C(=O)O` [VALPROIC ACID], the outcome in the data set with Rattus norvegicus [25] was Active. In the data set with Mus musculus [26], the ED50 is > 200 mg/kg.

Turning to `NS(=O)(=O)NCc1cccc2ccccc12`, the ED50 in the data set on Mus musculus [2] (setting [31]) is 123 mg/kg.

In the case of `NS(=O)(=O)NCc1coc2ccccc12`, the outcome in the data set on Mus musculus [1] and with Mus musculus [4] was inactive. Moreover, the Activity result in the data set on Mus musculus [27] is “Non-toxic”. Besides, the result with Mus musculus [5] was Active. For the same compound, in the data set on Mus musculus [2] (setting [31]), the ED50 was > 400 mg/kg.

`Cc1ccc2scc(CNS(N)(=O)=O)c2c1` yielded an inhibition on Carbonic anhydrase 2 [28] of 44%. The same compound yielded an IC50 against Carbonic anhydrase 2 [6] of 45 µM. In addition, in the data set on Mus musculus [2] (setting [31]), the ED50 was > 400 mg/kg.

Consider `O=C1NC(=O)C(c2ccccc2)(c2ccccc2)N1` [PHENYTOIN], for which, in the data set on Rattus norvegicus [10], the result was Active. The compound also gave an IC50 in [7] of 22 µM.

As for `NS(=O)(=O)NCc1ccccc1`, the outcome with Mus musculus [29], in the data set on Mus musculus [1] and with Mus musculus [5] was Active. Further, the ED50 in the data set with Mus musculus [30] came out at 440 mg/kg.

Source of the values: ChEMBL document CHEMBL1153762, “Novel, broad-spectrum anticonvulsants containing a sulfamide group: advancement of N-((benzo[b]thien-3-yl)methyl)sulfamide (JNJ-26990990) into human clinical studies” (J Med Chem, 2009).
